The values that follow come from ChEMBL document CHEMBL4613204, “Lysine demethylase 5B (KDM5B): A potential anti-cancer drug target” (Eur J Med Chem, 2019).

Test [1] deals with T1, Lysine-specific demethylase 5B (Homo sapiens, UniProt Q9UGL1). The test is described as follows: Inhibition of KDM5B (unknown origin).
The nature of test [2]: Selectivity ratio of GI50 for human […] cells. It is filed as functional.
The test system of test [3] is MDA-MB-231. Put plainly: Antiproliferative activity against human MDA-MB-231 cells assessed as growth inhibition. The test is classed as functional.
In test [4] the target is Lysine-specific demethylase 5C (Homo sapiens, UniProt P41229). Put plainly: Inhibition of KDM5C (1 to 789 residues) (unknown origin).
Test [5] concerns the target T1, Lysine-specific demethylase 5B. The test is described as follows: Inhibition of KDM5B (1 to 755 residues) (unknown origin).
Test [6] has as its system MCF7. The test is described as follows: Antiproliferative activity against human MCF7 cells assessed as growth inhibition. It is filed as functional.

T1 sequence (Q9UGL1 whole entry): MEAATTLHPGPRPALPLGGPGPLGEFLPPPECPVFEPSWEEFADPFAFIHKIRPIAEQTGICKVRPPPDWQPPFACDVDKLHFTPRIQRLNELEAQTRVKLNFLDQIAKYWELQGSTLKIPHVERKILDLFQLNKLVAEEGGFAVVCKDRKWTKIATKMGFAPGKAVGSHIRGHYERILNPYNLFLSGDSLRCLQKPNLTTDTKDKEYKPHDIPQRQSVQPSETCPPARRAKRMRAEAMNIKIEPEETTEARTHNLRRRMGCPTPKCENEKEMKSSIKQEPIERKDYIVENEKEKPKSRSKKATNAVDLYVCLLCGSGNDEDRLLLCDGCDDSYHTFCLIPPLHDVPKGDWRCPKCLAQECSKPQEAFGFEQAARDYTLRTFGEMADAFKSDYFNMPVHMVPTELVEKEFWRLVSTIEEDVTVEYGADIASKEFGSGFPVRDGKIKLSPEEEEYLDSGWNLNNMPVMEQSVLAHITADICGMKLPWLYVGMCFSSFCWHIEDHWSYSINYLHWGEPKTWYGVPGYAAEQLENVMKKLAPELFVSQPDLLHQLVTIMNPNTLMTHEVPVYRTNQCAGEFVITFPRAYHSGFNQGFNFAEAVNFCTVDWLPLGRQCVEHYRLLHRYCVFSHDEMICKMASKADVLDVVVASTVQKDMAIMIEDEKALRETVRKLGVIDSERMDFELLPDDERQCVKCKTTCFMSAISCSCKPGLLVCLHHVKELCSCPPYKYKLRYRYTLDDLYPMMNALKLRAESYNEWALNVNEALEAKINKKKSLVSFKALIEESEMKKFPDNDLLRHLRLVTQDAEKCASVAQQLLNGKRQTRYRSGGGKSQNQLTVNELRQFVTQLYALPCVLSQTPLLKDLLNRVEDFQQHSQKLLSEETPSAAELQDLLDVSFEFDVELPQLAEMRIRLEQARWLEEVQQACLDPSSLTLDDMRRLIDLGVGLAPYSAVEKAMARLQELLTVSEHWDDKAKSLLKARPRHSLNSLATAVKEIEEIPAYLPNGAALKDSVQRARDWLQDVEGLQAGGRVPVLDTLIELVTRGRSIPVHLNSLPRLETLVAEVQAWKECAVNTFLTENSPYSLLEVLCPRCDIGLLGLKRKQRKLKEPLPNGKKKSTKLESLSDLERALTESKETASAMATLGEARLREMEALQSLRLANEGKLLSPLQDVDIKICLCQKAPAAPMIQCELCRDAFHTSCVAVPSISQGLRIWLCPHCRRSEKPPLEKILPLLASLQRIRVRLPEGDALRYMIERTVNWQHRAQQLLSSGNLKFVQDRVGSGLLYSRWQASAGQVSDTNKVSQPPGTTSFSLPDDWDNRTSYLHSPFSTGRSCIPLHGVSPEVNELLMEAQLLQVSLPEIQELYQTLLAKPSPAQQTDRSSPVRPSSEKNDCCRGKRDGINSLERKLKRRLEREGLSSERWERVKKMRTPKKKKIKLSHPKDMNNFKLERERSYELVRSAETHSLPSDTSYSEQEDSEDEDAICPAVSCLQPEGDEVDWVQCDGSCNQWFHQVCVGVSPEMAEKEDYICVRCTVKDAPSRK
Lysine-specific demethylase 5C, sequence (P41229 whole entry, the tested form may be a part): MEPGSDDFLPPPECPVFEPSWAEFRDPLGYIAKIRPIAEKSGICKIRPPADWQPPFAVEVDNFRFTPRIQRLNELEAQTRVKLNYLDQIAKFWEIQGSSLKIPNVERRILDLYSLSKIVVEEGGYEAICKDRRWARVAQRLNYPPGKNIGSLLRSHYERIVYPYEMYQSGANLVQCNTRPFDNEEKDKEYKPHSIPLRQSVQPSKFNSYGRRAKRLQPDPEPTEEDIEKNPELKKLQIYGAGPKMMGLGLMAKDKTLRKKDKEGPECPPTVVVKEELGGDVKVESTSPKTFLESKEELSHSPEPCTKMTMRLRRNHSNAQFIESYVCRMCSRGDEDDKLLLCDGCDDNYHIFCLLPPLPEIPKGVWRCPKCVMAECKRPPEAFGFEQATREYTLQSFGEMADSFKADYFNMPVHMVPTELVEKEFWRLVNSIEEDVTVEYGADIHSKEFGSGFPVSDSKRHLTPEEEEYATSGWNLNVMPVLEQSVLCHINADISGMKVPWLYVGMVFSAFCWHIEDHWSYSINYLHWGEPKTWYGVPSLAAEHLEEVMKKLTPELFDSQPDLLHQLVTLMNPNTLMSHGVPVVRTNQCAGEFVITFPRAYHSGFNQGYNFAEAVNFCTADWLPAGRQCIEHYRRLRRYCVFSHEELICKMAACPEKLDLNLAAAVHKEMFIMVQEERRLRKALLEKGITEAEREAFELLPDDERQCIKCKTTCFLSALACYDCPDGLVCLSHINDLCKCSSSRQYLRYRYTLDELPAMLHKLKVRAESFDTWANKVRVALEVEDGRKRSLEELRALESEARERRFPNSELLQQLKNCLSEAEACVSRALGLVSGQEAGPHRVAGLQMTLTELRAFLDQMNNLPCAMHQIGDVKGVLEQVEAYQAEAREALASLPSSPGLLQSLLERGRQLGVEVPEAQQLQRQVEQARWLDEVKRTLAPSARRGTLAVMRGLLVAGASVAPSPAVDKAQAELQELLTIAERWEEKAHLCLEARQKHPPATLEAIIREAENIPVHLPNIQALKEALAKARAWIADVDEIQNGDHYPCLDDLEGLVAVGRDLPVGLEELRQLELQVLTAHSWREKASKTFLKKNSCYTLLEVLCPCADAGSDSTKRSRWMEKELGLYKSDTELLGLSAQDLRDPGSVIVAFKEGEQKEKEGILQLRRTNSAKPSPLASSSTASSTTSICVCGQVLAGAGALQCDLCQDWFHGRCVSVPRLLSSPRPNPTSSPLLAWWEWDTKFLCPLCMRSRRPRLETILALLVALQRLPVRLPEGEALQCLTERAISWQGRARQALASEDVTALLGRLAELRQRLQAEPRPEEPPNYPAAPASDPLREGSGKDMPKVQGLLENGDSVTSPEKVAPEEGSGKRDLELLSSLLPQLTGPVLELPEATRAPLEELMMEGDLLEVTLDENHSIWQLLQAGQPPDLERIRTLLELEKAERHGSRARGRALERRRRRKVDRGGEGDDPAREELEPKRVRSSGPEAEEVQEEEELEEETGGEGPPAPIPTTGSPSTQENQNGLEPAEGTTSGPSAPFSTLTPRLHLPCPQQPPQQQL

As usually defined, the IC50 is the concentration needed to halve the response being measured. The low end stands for inhibition by little substance, the high end for a need for much substance. For `Cc1ccc(-n2sc3ccccc3c2=O)cc1`, the midpoint of inhibition in test [1], the IC50, lay at 3000 nM.
The GI50 is the concentration that inhibits growth by half. Regarding `Clc1ccc(N/N=C(\c2ccccc2)c2ccccn2)nc1`, the Selectivity ratio in test [2] is recorded as 14. Further, the values for the concentration for 50% growth inhibition (GI50) in test [3] and in test [6] were 300 nM and 22 nM, respectively. The half-inhibitory concentration (IC50) was 42000 nM in test [4] and 5000 nM in test [5].
Take `CCOC(=O)c1c(O)c2ccncc2[nH]c1=O`: 20 nM corresponded to half-maximal inhibition in test [1] (IC50).
The molecule `O=C(O)CCC(=O)C(=O)O` [ALPHA-KETOGLUTARIC ACID] came in with an IC50 in test [1] of 800000 nM.
In turn, `CC(C)c1c(-c2ccccc2)[nH]c2c(C#N)cnn2c1=O` yielded an IC50 in test [1] of 10 nM.
